# In ChEMBL document CHEMBL5214910, “Rational Design of Dipicolylamine-Containing Carbazole Amphiphiles Combined with Zn2+ as Potent Broad-Spectrum Antibacterial Agents with a Membrane-Disruptive Mechanism” (J Med Chem, 2021):
# Assays:
# Staphylococcus aureus [1] = test: Antibacterial activity against Staphylococcus aureus ATCC 29213 assessed as inhibition of bacterial growth incubated for 24 hrs by Muller hinton broth based dilution assay; assay type: functional
# [2] = Hemolytic activity in rabbit RBC incubated for 1 hrs by fluorescence based microplate reader assay; assay type: toxicity, cell-based, Oryctolagus cuniculus, Erythrocyte; conditions: rabbit red blood cells (erythrocytes)
# Pseudomonas aeruginosa [3] = test: Antibacterial activity Pseudomonas aeruginosa ATCC 9027 assessed as inhibition of bacterial growth incubated for 24 hrs by Muller hinton broth based dilution assay; assay type: functional
# Acinetobacter baumannii [4] = test: Antibacterial activity against Acinetobacter baumannii ATCC 17978 assessed as inhIbition of bacterial growth incubated for 24 hrs by Muller hinton broth based dilution assay; assay type: functional
# Escherichia coli [5] = test: Antibacterial activity Escherichia coli ATCC 25922 assessed as inhibition of bacterial growth incubated for 24 hrs by Muller hinton broth based dilution assay; assay type: functional
# Acinetobacter baumannii [6] = test: Antibacterial activity against Acinetobacter baumannii R2889 assessed as inhIbition of bacterial growth incubated for 24 hrs by Muller hinton broth based dilution assay; assay type: functional
# Staphylococcus aureus [7] = test: Antibacterial activity against Methicillin-resistant Staphylococcus aureus NCTC10442 assessed as inhibition of bacterial growth incubated for 24 hrs by Muller hinton broth based dilution assay; assay type: functional
# Staphylococcus aureus [8] = test: Antibacterial activity against Methicillin-resistant Staphylococcus aureus N315 assessed as inhibition of bacterial growth incubated for 24 hrs by Muller hinton broth based dilution assay; assay type: functional
# Staphylococcus aureus [9] = test: Antibacterial activity against Staphylococcus aureus ATCC 29213 assessed as inhibition of bacterial growth incubated for 24 hrs in the presence of 12.5 ug/mL Zn2+ by Muller hinton broth based dilution assay; assay type: functional
# Pseudomonas aeruginosa [10] = test: Antibacterial activity Pseudomonas aeruginosa ATCC 9027 assessed as inhibition of bacterial growth incubated for 24 hrs in the presence of 12.5 ug/mL Zn2+ by Muller hinton broth based dilution assay; assay type: functional
# Acinetobacter baumannii [11] = test: Antibacterial activity against Acinetobacter baumannii ATCC 17978 assessed as inhIbition of bacterial growth incubated for 24 hrs in the presence of 12.5 ug/mL Zn2+ by Muller hinton broth based dilution assay; assay type: functional
# Acinetobacter baumannii [12] = test: Antibacterial activity against Acinetobacter baumannii R2889 assessed as inhIbition of bacterial growth incubated for 24 hrs in the presence of 12.5 ug/mL Zn2+ by Muller hinton broth based dilution assay; assay type: functional
# [13] = Hemolytic activity in rabbit RBC incubated for 1 hrs in the presence of 12.5 ug/mL Zn2+ by fluorescence based microplate reader assay; assay type: toxicity, cell-based, Oryctolagus cuniculus, Erythrocyte; conditions: rabbit red blood cells (erythrocytes)
# Staphylococcus aureus [14] = test: Antibacterial activity against Methicillin-resistant Staphylococcus aureus NCTC10442 assessed as inhibition of bacterial growth incubated for 24 hrs in the presence of 12.5 ug/mL Zn2+ by Muller hinton broth based dilution assay; assay type: functional
# Staphylococcus aureus [15] = test: Antibacterial activity against Methicillin-resistant Staphylococcus aureus N315 assessed as inhibition of bacterial growth incubated for 24 hrs in the presence of 12.5 ug/mL Zn2+ by Muller hinton broth based dilution assay; assay type: functional
# Escherichia coli [16] = test: Antibacterial activity Escherichia coli ATCC 25922 assessed as inhibition of bacterial growth incubated for 24 hrs in the presence of 12.5 ug/mL Zn2+ by Muller hinton broth based dilution assay; assay type: functional
# Staphylococcus aureus [17] = test: Antibacterial activity against Staphylococcus aureus ATCC 29213 in cyclophosphamide immunosuppressed C57BL/6 mouse model of bacterial keratitis assessed as log reduction in viable bacterial count in infected cornea at 5 % pre-infected with bacteria for 24 hrs followed by topical administration of compound four times a day for 3 days; assay type: functional; conditions: route top, time 3 day
# Escherichia coli [18] = test: Induction of drug resistance in Escherichia coli ATCC 25922 assessed as fold change in MIC incubated for 15 days; assay type: functional; conditions: time 15.0 day
# Pseudomonas aeruginosa [19] = test: Antibacterial activity against Pseudomonas aeruginosa ATCC 9027 in C57BL/6 mouse model of bacterial keratitis assessed as log reduction in viable bacterial count in infected cornea at 0.3 % pre-infected with bacteria for 24 hrs followed by topical administration of compound four times a day for 3 days; assay type: functional; conditions: route top, time 3 day
SMILES,MIC (Staphylococcus aureus [1]),HC50 at 1 h [2],MIC (Pseudomonas aeruginosa [3]),MIC (Acinetobacter baumannii [4]),MIC (Escherichia coli [5]),MIC (Acinetobacter baumannii [6]),MIC (Staphylococcus aureus [7]),MIC (Staphylococcus aureus [8]),MIC (Staphylococcus aureus [9]),MIC (Pseudomonas aeruginosa [10]),MIC (Acinetobacter baumannii [11]),MIC (Acinetobacter baumannii [12]),HC50 at 1 h [13],MIC (Staphylococcus aureus [14]),MIC (Staphylococcus aureus [15]),MIC (Escherichia coli [16]),log(activity) (Staphylococcus aureus [17]),fold change (FC) (Escherichia coli [18]),log(activity) (Pseudomonas aeruginosa [19])
c1ccc2c(c1)[nH]c1cccc(OCC3CO3)c12 (configuration not stated),> 50 µg/mL,> 200 µg/mL,> 50 µg/mL,> 50 µg/mL,> 50 µg/mL,> 50 µg/mL,> 50 µg/mL,> 50 µg/mL,,,,,,,,,,,
CC(C)=CCn1c2ccccc2c2c(OCC(O)CNCc3ccccn3)cccc21 (configuration not stated),6.25 µg/mL,> 200 µg/mL,> 50 µg/mL,> 50 µg/mL,50 µg/mL,> 50 µg/mL,6.25 µg/mL,6.25 µg/mL,3.12 µg/mL,> 50 µg/mL,> 50 µg/mL,> 50 µg/mL,> 200 µg/mL,6.25 µg/mL,3.12 µg/mL,> 50 µg/mL,,,
CN[C@H](CC(C)C)C(=O)N[C@H]1C(=O)N[C@@H](CC(N)=O)C(=O)N[C@H]2C(=O)N[C@H]3C(=O)N[C@H](C(=O)N[C@H](C(=O)O)c4cc(O)cc(O)c4-c4cc3ccc4O)[C@H](O)c3ccc(c(Cl)c3)Oc3cc2cc(c3O[C@@H]2O[C@H](CO)[C@@H](O)[C@H](O)[C@H]2O[C@H]2C[C@](C)(N)[C@H](O)[C@H](C)O2)Oc2ccc(cc2Cl)[C@H]1O [VANCOMYCIN],0.78 µg/mL,,> 50 µg/mL,50 µg/mL,> 50 µg/mL,> 50 µg/mL,1.56 µg/mL,1.56 µg/mL,0.78 µg/mL,> 50 µg/mL,50 µg/mL,> 50 µg/mL,,1.56 µg/mL,1.56 µg/mL,> 50 µg/mL,5.4,,
Cn1c2ccccc2c2c(OCC3CO3)cccc21 (configuration not stated),> 50 µg/mL,> 200 µg/mL,> 50 µg/mL,> 50 µg/mL,> 50 µg/mL,> 50 µg/mL,> 50 µg/mL,> 50 µg/mL,,,,,,,,,,,
CCCCCCCn1c2ccccc2c2c(OCC(O)CN(Cc3ccccn3)Cc3ccccn3)cccc21 (configuration not stated),1.56 µg/mL,> 200 µg/mL,> 50 µg/mL,> 50 µg/mL,> 50 µg/mL,25 µg/mL,1.56 µg/mL,1.56 µg/mL,1.56 µg/mL,> 50 µg/mL,> 50 µg/mL,25 µg/mL,> 200 µg/mL,1.56 µg/mL,0.78 µg/mL,3.12 µg/mL,,,
CC1(C)S[C@@H]2[C@H](NC(=O)[C@H](N)c3ccc(O)cc3)C(=O)N2[C@H]1C(=O)O,,,,,,,,,,,,,,,,,,16,
CCCCCn1c2ccccc2c2c(OCC3CO3)cccc21 (configuration not stated),> 50 µg/mL,> 200 µg/mL,> 50 µg/mL,> 50 µg/mL,> 50 µg/mL,> 50 µg/mL,> 50 µg/mL,> 50 µg/mL,,,,,,,,,,,
CCCCCCCCCn1c2ccccc2c2c(OCC(O)CN(Cc3ccccn3)Cc3ccccn3)cccc21 (configuration not stated),3.12 µg/mL,> 200 µg/mL,> 50 µg/mL,> 50 µg/mL,> 50 µg/mL,> 50 µg/mL,6.25 µg/mL,0.78 µg/mL,3.12 µg/mL,> 50 µg/mL,12.5 µg/mL,> 50 µg/mL,> 200 µg/mL,6.25 µg/mL,0.78 µg/mL,> 50 µg/mL,,,
CCCn1c2ccccc2c2c(OCC(O)CN(Cc3ccccn3)Cc3ccccn3)cccc21 (configuration not stated),3.12 µg/mL,> 200 µg/mL,> 50 µg/mL,6.25 µg/mL,12.5 µg/mL,6.25 µg/mL,3.12 µg/mL,1.56 µg/mL,0.78 µg/mL,6.25 µg/mL,3.12 µg/mL,6.25 µg/mL,> 200 µg/mL,1.56 µg/mL,0.78 µg/mL,6.25 µg/mL,,,
COc1c(N2CCNC(C)C2)c(F)cc2c(=O)c(C(=O)O)cn(C3CC3)c12 (configuration not stated) [GATIFLOXACIN],,,,,,,,,,,,,,,,,,,3.03
O=C(O)c1cn(C2CC2)c2cc(N3CCNCC3)c(F)cc2c1=O [CIPROFLOXACIN],0.39 µg/mL,,0.195 µg/mL,0.39 µg/mL,0.049 µg/mL,0.78 µg/mL,0.39 µg/mL,0.39 µg/mL,0.39 µg/mL,0.195 µg/mL,0.39 µg/mL,0.78 µg/mL,,0.39 µg/mL,0.39 µg/mL,0.049 µg/mL,,,
CC(C)=CCn1c2ccccc2c2c(OCC3CO3)cccc21 (configuration not stated),> 50 µg/mL,> 200 µg/mL,> 50 µg/mL,> 50 µg/mL,> 50 µg/mL,> 50 µg/mL,> 50 µg/mL,> 50 µg/mL,,,,,,,,,,,
